{"source": "paper PMC9421656", "about": "“Beyond Retigabine: Design, Synthesis, and Pharmacological Characterization of a Potent and Chemically Stable Neuronal Kv7 Channel Activator with Anticonvulsant Activity” (Journal of Medicinal Chemistry, 2022)", "key": {"[1]": {"conditions": "literature value; cited from earlier work"}, "epileptic activity": {"tested_on": "epileptic activity", "parameters": "method as in PMID 25319542", "conditions": "cited from earlier work"}, "Kv7.2/Kv7.3 channels [2]": {"target": "T1, Kv7.2/Kv7.3 channels (Homo sapiens, UniProt O43525+O43526)", "test": "FluxOR thallium-sensitive fluorescence-based assay in CHO cells stably expressing Kv7.2 + Kv7.3", "format": "cell-based", "parameters": "expressed in transfected cells", "description": "While assay robustness in Kv7.2/Kv7.3-expressing cells was high (Z′ factor > 0.5),[27] the Z′ factor calculated in CHO cells expressing Kv7.2 subunits alone was <0.5; thus, all subsequent pharmacological screens were performed in Kv7.2/Kv7.3-expressing cells. […] The Kv7.2/Kv7.3-stable cell line was generated using a plasmid-based PiggyBac transposon system that enables genomic integration of multiple independent transposons containing distinct cDNA sequences. cDNAs for KCNQ2 and KCNQ3 genes (encoding for Kv7.2 and Kv7.3, respectively) were cloned into two different PiggyBac expression vectors (pB-CMV-MCS-EF1α-RedPuro, System Biosciences), and these two plasmids, together with a plasmid encoding for the transposase (System Biosciences), were transfected into CHO cells using Lipofectamine 2000 (Invitrogen) as indicated in the protocol provided by the seller company.\nThe selected clone stably expressing Kv7.2/Kv7.3 channels was grown in DMEM supplemented with 10% FBS, 50 U/mL Pen-Strep, 2 mM L-glutamine (all purchased from Gibco), and 4 μg/mL puromycin (Sigma) in a humidified atmosphere at 37 °C with 5% CO2. […] A kinetic dispense microplate reader (FLUOstar Optima) was used to read the plate, setting the excitation filter at 485 nm and the emission filter at 520 nm; “Stimulus buffer” prepared as indicated in the protocol was automatically added to wells after 5 s of recording; the plate was read every 1 s, for 50 s. The results were analyzed using Optima Data Analysis and Microsoft Excel.\nOnly experiments resulting in a Z′ > 0.5 were considered. Data shown (Figures 1D,E,F,G and 3B) were obtained from at least three independent experiments.\nData were analyzed using the GraphPad Prism 8.0.2 (GraphPad Software, LaJolla, CA). Statistically significant differences in the initial slope of the curves were evaluated through ordinary one-way ANOVA, and multiple comparisons were corrected with the Tukey test. […] Indicated EC50 values are the mean of at least three independent experiments ± standard error of the mean (SEM)."}, "Kv7.2/Kv7.3 channels [3]": {"target": "T1, Kv7.2/Kv7.3 channels", "parameters": "expressed in transfected cells", "conditions": "cited from earlier work"}, "Kv7.2/Kv7.3 channels [4]": {"target": "T1, Kv7.2/Kv7.3 channels", "test": "Whole-cell patch-clamp electrophysiology in CHO cells expressing Kv7.2/Kv7.3", "format": "cell-based", "parameters": "expressed in transfected cells; host or cells: CHO cells, transient transfection (pcDNA3.1, Lipofectamine 2000)", "conditions": "for EC50: dose-response 0.01–30 μM", "description": "Channel subunits were expressed in Chinese hamster ovary (CHO) cells by transient transfection, using plasmids containing cDNAs encoding human Kv7.2 and/or Kv7.3, all cloned in the pcDNA3.1 vector. According to the experimental protocol, these plasmids were expressed individually or in combination, together with a plasmid-expressing enhanced green fluorescent protein (Clontech, Palo Alto, CA) used as a transfection marker. Total cDNA in the transfection mixture was kept at 4 μg. CHO cells were grown in 100 mm plastic Petri dishes in Dulbecco’s modified Eagle’s medium containing 10% fetal bovine serum, nonessential amino acids (0.1 mM), penicillin (50 U/mL), and streptomycin ([…]) in a humidified atmosphere at 37 °C with 5% CO2.\nCurrents from CHO cells were recorded at room temperature (20–22 °C) using the whole-cell configuration of the patch-clamp technique, with glass micropipettes of 3–5 MΩ resistance. During the recording, constant perfusion of extracellular solution was maintained. […] The pipette (intracellular) solution contained (in mM): 140 KCl, 2 MgCl2, 10 EGTA, 10 HEPES, 5 Mg^2+-ATP, at pH 7.3–7.4, with KOH. […] To evaluate the activity of each compound on Kv7.2 + Kv7.3 currents, the cells were clamped at −80 mV and conductance–voltage curves (G/V curves; activation curves) were generated by normalizing to the maximal value of the instantaneous isopotential currents at 0 mV and expressing the normalized values as a function of the preceding voltages. Data were fit to a Boltzmann distribution of the following form: y = max/[1 + exp (V1/2 – V)/k], where V is the test potential, V1/2 is the half-activation potential, and k is the slope factor.\nIndicated EC50 values are the mean of at least three independent experiments ± standard error of the mean (SEM).\nStatistically significant differences in electrophysiological data were evaluated with the Student t test or with ANOVA followed by the Student–Newman–Keuls test when multiple groups were compared, with the threshold set at p < 0.05. […] Values are expressed as the […] mean ± standard error of the mean (SEM) of at least three cells recorded in at least three independent transfections."}, "Kv7.2/Kv7.3 currents": {"target": "Kv7.2/Kv7.3 currents (Homo sapiens, UniProt O43525+O43526)", "sequence (O43526 whole entry)": "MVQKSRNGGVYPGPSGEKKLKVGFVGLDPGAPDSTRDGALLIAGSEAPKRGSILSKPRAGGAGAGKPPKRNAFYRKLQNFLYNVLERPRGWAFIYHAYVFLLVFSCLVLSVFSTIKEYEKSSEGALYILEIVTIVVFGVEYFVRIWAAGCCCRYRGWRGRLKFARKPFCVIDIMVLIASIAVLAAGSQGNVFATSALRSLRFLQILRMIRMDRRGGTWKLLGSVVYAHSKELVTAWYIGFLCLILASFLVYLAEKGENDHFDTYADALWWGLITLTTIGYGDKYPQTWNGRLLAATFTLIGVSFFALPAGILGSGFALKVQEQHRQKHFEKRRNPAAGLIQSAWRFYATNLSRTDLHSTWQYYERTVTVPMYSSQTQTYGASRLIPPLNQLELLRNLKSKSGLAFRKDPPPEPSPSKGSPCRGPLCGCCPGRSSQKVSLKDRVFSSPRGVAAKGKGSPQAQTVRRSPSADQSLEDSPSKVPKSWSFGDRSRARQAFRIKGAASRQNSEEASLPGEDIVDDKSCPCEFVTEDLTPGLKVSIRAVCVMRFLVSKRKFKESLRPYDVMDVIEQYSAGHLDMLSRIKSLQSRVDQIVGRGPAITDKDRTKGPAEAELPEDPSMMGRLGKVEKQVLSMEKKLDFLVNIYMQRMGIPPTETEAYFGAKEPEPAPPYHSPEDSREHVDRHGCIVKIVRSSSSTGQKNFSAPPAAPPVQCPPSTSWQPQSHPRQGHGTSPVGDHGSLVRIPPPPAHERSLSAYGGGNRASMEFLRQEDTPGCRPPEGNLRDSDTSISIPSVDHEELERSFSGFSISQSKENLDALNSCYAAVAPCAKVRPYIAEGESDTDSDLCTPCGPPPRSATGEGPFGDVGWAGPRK", "sequence (O43525 whole entry)": "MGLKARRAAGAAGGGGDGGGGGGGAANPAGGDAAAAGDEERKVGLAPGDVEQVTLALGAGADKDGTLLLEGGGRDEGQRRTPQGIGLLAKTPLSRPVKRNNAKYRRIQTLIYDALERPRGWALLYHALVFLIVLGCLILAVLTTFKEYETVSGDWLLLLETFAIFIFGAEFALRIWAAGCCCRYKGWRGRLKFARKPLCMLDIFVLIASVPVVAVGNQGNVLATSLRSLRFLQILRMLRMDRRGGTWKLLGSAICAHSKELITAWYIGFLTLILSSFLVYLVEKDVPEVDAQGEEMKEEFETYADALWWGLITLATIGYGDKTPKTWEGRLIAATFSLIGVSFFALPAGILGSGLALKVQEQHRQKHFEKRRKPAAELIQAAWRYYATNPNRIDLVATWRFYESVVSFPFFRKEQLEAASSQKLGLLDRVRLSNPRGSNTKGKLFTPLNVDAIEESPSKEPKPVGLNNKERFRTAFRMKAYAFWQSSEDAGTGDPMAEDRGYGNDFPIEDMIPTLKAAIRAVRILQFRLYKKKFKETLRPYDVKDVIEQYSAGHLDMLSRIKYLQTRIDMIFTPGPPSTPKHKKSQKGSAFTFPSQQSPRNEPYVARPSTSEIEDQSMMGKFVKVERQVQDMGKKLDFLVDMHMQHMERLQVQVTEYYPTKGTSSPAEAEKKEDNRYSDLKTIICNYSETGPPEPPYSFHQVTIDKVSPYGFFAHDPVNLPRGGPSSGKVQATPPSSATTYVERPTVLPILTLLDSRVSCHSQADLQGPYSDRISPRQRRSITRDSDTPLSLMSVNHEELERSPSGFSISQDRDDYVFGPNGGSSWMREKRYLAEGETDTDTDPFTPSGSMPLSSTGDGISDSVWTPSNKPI", "conditions": "3 mM TEA", "description": "To ensure that both Kv7.2 and Kv7.3 subunits were expressed into the selected clone and formed heteromeric channels, pharmacological experiments with the Kv7 channel blocker tetraethylammonium (TEA) were performed.[64] […] The effect of TEA blockade on Kv7.2/Kv7.3 currents on the selected clone was compared to that of the blockade exerted on the control group, represented by CHO cells transiently transfected with Kv7.2/Kv7.3 channels. The effect of the TEA blockade was investigated using a ramp protocol in which Kv7.2/Kv7.3 currents were activated by 3 s voltage ramps from −80 to +20 mV."}, "Kv7.2": {"tested_on": "Kv7.2", "conditions": "TEA blockade of Kv7.2; cited from earlier work"}, "Kv7.2/Kv7.3 channel": {"tested_on": "Kv7.2/Kv7.3 channel", "conditions": "TEA blockade of heteromeric Kv7.2/Kv7.3; cited from earlier work"}}, "note": "Where two headings read alike, the source gives them in different places."}
{"compound": "C#CCN(Cc1ccc(F)cc1)c1ccc(NC(=O)OCC)c(N)c1", "note": "[P-RET, N-propargyl retigabine]", "values": [{"measurement": "Increase in brain/plasma ratio compared to retigabine", "setting": "[1]", "result": 14, "unit": "fold"}, {"measurement": "In vivo potency higher than retigabine (suppression of epileptic activity)", "setting": "epileptic activity", "result": 2.5, "unit": "times"}, {"measurement": "logP", "setting": "Lipophilicity (log P)", "result": 3.48}]}
{"compound": "CCOC(=O)Nc1ccc(NCc2ccc(C(F)(F)F)cc2)c(F)c1N", "note": "[RL-81]", "values": [{"measurement": "Slope of the fluorescent signal at 10 μM", "setting": "Kv7.2/Kv7.3 channels [2]; 10 μM, initial slope of FluxOR signal between 5 and 15 s, mean ± SEM", "result": "0.0272±0.0014"}, {"measurement": "EC50", "setting": "Kv7.2/Kv7.3 channels [2]; FluxOR dose-response, slope parameter, read-out: EC50 (initial slope of the fluorescence signal)", "result": "4 ± 1", "unit": "µM"}, {"measurement": "Potency relative to retigabine as a Kv7 activator in vitro", "setting": "Kv7.2/Kv7.3 channels [3]", "result": "> 15", "unit": "times"}, {"measurement": "Leftward shift in V1/2 (ΔV1/2)", "setting": "Kv7.2/Kv7.3 channels [4]; 1 μM", "result": "about 40 mV"}, {"measurement": "Idrug/Icontrol (maximal current density)", "setting": "Kv7.2/Kv7.3 channels [4]; calculated at +20 mV", "result": "1.6 ± 0.2"}, {"measurement": "EC50", "setting": "Kv7.2/Kv7.3 channels [4]; current at +20 mV, read-out: Maximal currents EC50", "result": "0.27 ± 0.04", "unit": "µM"}, {"measurement": "EC50", "setting": "Kv7.2/Kv7.3 channels [4]; read-out: ΔV1/2 EC50", "result": "0.24 ± 0.06", "unit": "µM"}, {"measurement": "Potency over retigabine as Kv7.2/Kv7.3 activator (fold/times)", "setting": "Kv7.2/Kv7.3 channels [4]; from ΔV1/2 EC50", "result": 10}]}
{"compound": "CC[N+](CC)(CC)CC", "note": "[TEA, tetraethylammonium]", "values": [{"measurement": "Current inhibition", "setting": "Kv7.2/Kv7.3 currents; CHO cells transiently transfected with Kv7.2/Kv7.3 (control group)", "result": "about 55%"}, {"measurement": "Current inhibition", "setting": "Kv7.2/Kv7.3 currents; selected stable clone (clone 5)", "result": "about 35%"}, {"measurement": "IC50", "setting": "Kv7.2", "result": 300, "unit": "µM"}, {"measurement": "IC50", "setting": "Kv7.2/Kv7.3 channel", "result": 3000, "unit": "µM"}]}
